Assay results from patent US20110086759A1, “CHEMICAL COMPOUNDS” (SYNGENTA CROP PROTECTION, INC., priority 2007, published 2011).

Assays:
Assay type in all cases: in vivo
Setaria faberi (SETFA) [1] = experiment: Pre-emergence biological efficacy, glasshouse pot test; details: 312 h, pre-emergence, rate 1,000 g/ha, evaluated after 13 days (100=total damage to plant; 0=no damage), read-out: Percentage damage caused to weed species, SETFA
Outline: (§1)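 Damage rated 0–100 (100 = total kill) 13 days post-spray. Pots of standard soil were sown and sprayed after one day with test compound at 1000 or 250 g/ha in acetone/water (50:50) plus 0.5% Tween 20.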

Solanum nigrum (SOLNI) [2] = experiment: as above; details: 312 h, pre-emergence, rate 1,000 g/ha, evaluated after 13 days (100=total damage to plant; 0=no damage), read-out: Percentage damage caused to weed species, SOLNI
Outline: as §1

[3] = tested on: Alopecurus myosuroides (ALOMY); experiment: as above; details: 312 h, pre-emergence, rate 1,000 g/ha, evaluated after 13 days (100=total damage to plant; 0=no damage), read-out: Percentage damage caused to weed species, ALOMY
Outline: as §1

[4] = tested on: Ipomea hederaceae (IPOHE); experiment: as above; details: Ipomoea hederacea, 312 h; pre-emergence, rate 1,000 g/ha, evaluated after 13 days (100=total damage to plant; 0=no damage); read-out: Percentage damage caused to weed species, IPOHE
Outline: as §1

[5] = tested on: Amaranthus retoflexus (AMARE); experiment: as above; details: Amaranthus retroflexus, 312 h; pre-emergence, rate 1,000 g/ha, evaluated after 13 days (100=total damage to plant; 0=no damage); read-out: Percentage damage caused to weed species, AMARE
Outline: as §1

[6] = tested on: Echinochloa crus-galli (ECHCG); experiment: as above; details: 312 h, pre-emergence, rate 1,000 g/ha, evaluated after 13 days (100=total damage to plant; 0=no damage), read-out: Percentage damage caused to weed species, ECHCG
Outline: as §1

Setaria faberi (SETFA) [7] = experiment: Post-emergence biological efficacy, glasshouse pot test; details: 312 h, Rate 1,000 g/ha, post-emergence spray, evaluated after 13 days (100=total damage to plant; 0=no damage to plant), read-out: Percentage damage caused to weed species, post-emergence, SETFA
Outline: (§2)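 Pot-grown weeds were sprayed 8 days after sowing with test compound in acetone/water (50:50) with 0.5% Tween 20 at 1000 or 250 g/ha. Glasshouse at 24/16° C day/night, 14 h light, 65% humidity. Damage scored 0-100 (100 = total damage) after 13 days.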

Solanum nigrum (SOLNI) [8] = experiment: as above; details: 312 h, Rate 1,000 g/ha, post-emergence spray, evaluated after 13 days (100=total damage to plant; 0=no damage to plant), read-out: Percentage damage caused to weed species, post-emergence, SOLNI
Outline: as §2

[9] = tested on: Alopecurus myosuroides (ALOMY); experiment: as above; details: 312 h, Rate 1,000 g/ha, post-emergence spray, evaluated after 13 days (100=total damage to plant; 0=no damage to plant), read-out: Percentage damage caused to weed species, post-emergence, ALOMY
Outline: as §2

[10] = tested on: Ipomea hederaceae (IPOHE); experiment: as above; details: Ipomoea hederacea, 312 h; Rate 1,000 g/ha; post-emergence spray; evaluated after 13 days (100=total damage to plant; 0=no damage to plant); read-out: Percentage damage caused to weed species, post-emergence, IPOHE
Outline: as §2

[11] = tested on: Amaranthus retoflexus (AMARE); experiment: as above; details: Amaranthus retroflexus, 312 h; Rate 1,000 g/ha; post-emergence spray; evaluated after 13 days (100=total damage to plant; 0=no damage to plant); read-out: Percentage damage caused to weed species, post-emergence, AMARE
Outline: as §2

[12] = tested on: Echinochloa crus-galli (ECHCG); experiment: as above; details: 312 h, Rate 1,000 g/ha, post-emergence spray, evaluated after 13 days (100=total damage to plant; 0=no damage to plant), read-out: Percentage damage caused to weed species, post-emergence, ECHCG
Outline: as §2

Structure (SMILES)	pest or weed control at 1000 g/ha (Setaria faberi (SETFA) [1]) [%]	pest or weed control at 1000 g/ha (Solanum nigrum (SOLNI) [2]) [%]	pest or weed control at 1000 g/ha [3] [%]	pest or weed control at 1000 g/ha [4] [%]	pest or weed control at 1000 g/ha [5] [%]	pest or weed control at 1000 g/ha [6] [%]	pest or weed control at 1000 g/ha (Setaria faberi (SETFA) [7]) [%]	pest or weed control at 1000 g/ha (Solanum nigrum (SOLNI) [8]) [%]	pest or weed control at 1000 g/ha [9] [%]	pest or weed control at 1000 g/ha [10] [%]	pest or weed control at 1000 g/ha [11] [%]	pest or weed control at 1000 g/ha [12] [%]
COC(=O)c1nc(-c2ccc(Cl)cc2C)nc(NCc2ccco2)c1Cl [Compound 213-48, 5-Chloro-2-(4-chloro-2-methylphenyl)-4-(furan-2-yl-methyl-amino)-6-methoxy-carbonylpyrimidine]	10	0	10	0	70	0	10	10	0	0	100	0
COC(=O)c1nc(-c2ccc(Cl)cc2OC)nc(NCc2ccco2)c1Cl [Compound 214-48, 5-Chloro-2-(4-chloro-2-methoxyphenyl)-4-(furan-2-yl-methyl-amino)-6-methoxy-carbonylpyrimidine]	10	20	20	0	100	0	10	70	30	30	100	0
COC(=O)c1nc(-c2ccc(Cl)c(C)c2)nc(NCc2ccco2)c1Cl [Compound 216-48, 5-Chloro-2-(4-chloro-3-methylphenyl)-4-(furan-2-ylmethyl-amino)-6-methoxy-carbonylpyrimidine]	30	30	0	0	30	30	10	60	10	30	100	30
COC(=O)c1nc(-c2ccc(Cl)c(C(F)(F)F)c2)nc(NCc2ccco2)c1Cl [Compound 217-48, 5-Chloro-2-(4-chloro-3-trifluoromethyl-phenyl)-4-(furan-2-ylmethylamino)-6-methoxycarbonyl-pyrimidine]	20	50	20	0	20	0	20	70	10	30	80	0
COC(=O)c1nc(-c2ccc(Cl)cc2F)nc(NCc2ccco2)c1Cl [Compound 218-48, 5-Chloro-2-(4-chloro-2-fluorophenyl)-4-(furan-2-yl-methyl-amino)-6-methoxy-carbonylpyrimidine]	70	90	70	50	100	50	80	90	60	90	100	60
COC(=O)c1nc(-c2ccc(Cl)c([N+](=O)[O-])c2)nc(NCc2ccco2)c1Cl [Compound 219-48, 5-Chloro-2-(4-chloro-3-nitrophenyl)-4-(furan-2-yl-methyl-amino)-6-methoxycarbonyl-pyrimidine]	0	0	0	0	20	0	20	30	0	0	20	0
COC(=O)c1nc(-c2ccc(Cl)cc2C(F)(F)F)nc(NCc2ccco2)c1Cl [Compound 220-48, 5-Chloro-2-(4-chloro-2-trifluoromethyl-phenyl)-4-(furan-2-ylmethylamino)-6-methoxycarbonyl-pyrimidine]	0	0	0	0	20	0	0	20	20	10	40	0
COC(=O)c1nc(-c2ccc(Cl)c(C#N)c2)nc(NCc2ccco2)c1Cl [Compound 221-48, 5-Chloro-2-(4-chloro-3-cyanophenyl)-4-(furan-2-yl-methyl-amino)-6-methoxy-carbonylpyrimidine]	0	0	0	0	60	0	30	80	10	40	80	30
COC(=O)c1nc(-c2ccc(Cl)c(F)c2)nc(NCc2ccco2)c1Cl [Compound 222-48, 5-Chloro-2-(4-chloro-3-fluorophenyl)-4-(furan-2-ylmethyl-amino)-6-methoxycarbonyl-pyrimidine]	20	100	30	70	100	50	40	90	30	80	100	40
COC(=O)c1nc(-c2ccc(Cl)c(F)c2Cl)nc(NCc2ccco2)c1Cl [Compound 224-48, 5-Chloro-2-(2,4-dichloro-3-fluorophenyl)-4-(furan-2-ylmethyl-amino)-6-methoxy-carbonylpyrimidine]	50	90	60	70	100	0	80	90	60	70	100	40
